For six molecules, Ki results are on record in patent publication US20040019018A1, “Rigid pyrrolidone modulators of pkc” (priority 2003, published 2004).

Holding throughout (assay): [3H]PDBu displacement from recombinant PKC isozyme (baculovirus)
Format in all cases: binding
Holding throughout (settings): [3H]PDBu competition

One assay concerns the target T1, ε-PKC (Homo sapiens, UniProt Q02156).
T1 sequence (Q02156 1-737): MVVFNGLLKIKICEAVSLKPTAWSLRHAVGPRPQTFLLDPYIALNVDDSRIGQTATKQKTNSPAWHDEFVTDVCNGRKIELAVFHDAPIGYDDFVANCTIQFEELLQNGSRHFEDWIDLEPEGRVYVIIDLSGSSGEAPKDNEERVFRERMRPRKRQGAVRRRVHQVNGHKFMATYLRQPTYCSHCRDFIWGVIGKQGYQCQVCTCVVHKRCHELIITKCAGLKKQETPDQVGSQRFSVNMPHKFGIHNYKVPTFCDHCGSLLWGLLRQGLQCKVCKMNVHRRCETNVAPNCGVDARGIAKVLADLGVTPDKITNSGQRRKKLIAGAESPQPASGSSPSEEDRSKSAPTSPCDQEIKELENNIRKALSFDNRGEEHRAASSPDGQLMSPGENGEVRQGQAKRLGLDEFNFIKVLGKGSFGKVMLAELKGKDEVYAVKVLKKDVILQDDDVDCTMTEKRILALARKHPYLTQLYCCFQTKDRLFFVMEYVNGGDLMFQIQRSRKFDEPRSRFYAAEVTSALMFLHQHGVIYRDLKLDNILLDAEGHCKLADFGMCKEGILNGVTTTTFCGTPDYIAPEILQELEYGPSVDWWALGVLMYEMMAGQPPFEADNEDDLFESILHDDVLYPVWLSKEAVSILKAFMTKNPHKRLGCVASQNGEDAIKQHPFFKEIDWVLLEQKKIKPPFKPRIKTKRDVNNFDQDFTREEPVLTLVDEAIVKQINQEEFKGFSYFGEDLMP
Here is the method:
(§1) The ability of representative compounds of the invention to bind specific isozymes of PKC was determined using an assay (Example 13) in which displacement of [20-^3H]phorbol -12,13-dibutyrate ([^3H]PDBu) from either recombinant PKC isozymes prepared in a Baculovirus system, or unresolved mixture of isozymes of PKC isolated from whole brain extracts, was used. These procedures are described below. […] (See the key that follows)
(§2) Analysis of [20-^3H]phorbol 12,13-dibutyrate binding to PKC. Specific binding of [^3H]PDBu to PKC was carried out as described (Kazanietz, et al., Mol. Pharmacol. 44:298-307 (1993)). [^3H]PDBu (20.0 Ci/mmol) was obtained from New England Nuclear. Phosphatidylserine and bovine […] were obtained from Sigma Chemical Co. Binding was determined in an incubation volume of 250 μl, containing [^3H]PDBu, PKC, 0.05 M Tris-Cl, pH 7.4, 100 μg/ml phosphatidylserine, various concentrations of the ligand being assayed for competition of [^3H]PDBu binding, and bovine […] at 1 mg/ml. In the case of the classical PKCs (α, β, […]) CaCl2 was included at a concentration of 0.1 mM. Liposomes of phosphatidylserine were prepared as follows. The phosphatidylserine solutions were dried down from CHCl3 under a stream of N2. After addition of 0.05 M Tris-Cl, pH 7.4, liposomes were prepared by sonication for 30 sec with the microtip probe of Sonifier Cell Disrupter (Heat Systems-Ultrasonics). [^3H]PDBu was used at a concentration twice the Kd previously determined for the specific receptor. Ligands were assayed over a concentration range of 3 orders of magnitude. Ligands were diluted in 0.05 M Tris-Cl, pH 7.4 containing 1 mg/ml bovine g-globulin. If the compounds were not soluble at the highest concentration used, they were dissolved in organic solvent (CHCl3 or ethanol) and mixed with the phosphatidylserine dissolved in CHCl3. The solvent was removed under a stream of N2.
(§3) Mixed liposomes were then prepared, as described for the preparation of the liposomes of phosphatidylserine alone, by the addition of 0.05 M Tris-Cl, pH 7.4, and sonication for 30 sec with the microtip probe of a Sonifier Cell Disrupter (Heat Systems-Ultrasonics). Incubation was for 5 min at 37° C. The samples were then be cooled to 4° C. for 8 min and 200 μl of 35% polyethylene glycol in 0.05 M Tris-Cl, pH 7.4 (w:w) added. After vigorous mixing, the samples were incubated for 15 min to allow precipitation of the receptor. The precipitate was recovered by centrifugation at 12,000 rpm in a Beckman microcentrifuge at 4° C. A 100 μl aliquot of the supernatant was removed and its radioactivity determined in a Wallac liquid scintillation counter, Model 1409. This value provided a measure of the concentration of unbound [^3H]PDBu. The remainder of the supernatant was removed by aspiration and blotting with absorbent tissue. The tip of the centrifuge tube was cut off and the radioactivity in the pellet measured to determine total bound [^3H]PDBu. Non-specific binding of [^3H]PDBu was measured in the presence of 30 μM non-radioactive PDBu and used to determine an apparent partition coefficient for [^3H]PDBu under these assay conditions.
(§4) Specific binding represents the difference between total binding and the non-specific binding, where the latter value was calculated from the partition coefficient and the measured free [^3H]PDBu concentration in each tube. In each experiment, triplicate determinations were performed at each concentration of competing ligand.

The next assay deals with T2, γ-PKC (Homo sapiens, UniProt P05129).
T2 construct: made in house; host or cells: Sf9 cells (baculovirus)
Here is the method: as §1, §2, §3, §4

In the next assay the target is T3, α-PKC (Homo sapiens, UniProt P17252).
T3 construct: made in house; host or cells: Sf9 cells (baculovirus)
Here is the method:
as §1, §2, §3, §4

Several values for one entry are separate records, joined by “and”; a condition that tells them apart may be missing. Identical values can stand only once.

As for `CCCCCCCCCCCC(=O)Oc1cc2c(cc1Br)[C@@H]1[C@@H](CO)NC(=O)[C@@H]1[C@]2(C)C(C)C` [Compound 5, (3S, 8S, 9S, 10S)-5-bromo-6-dodecanoyloxyl-3-hydroxymethyl-8-isopropyl-8-methyl-3,3a,8,8a-tetrahydro-2H -2-aza-cyclopenta[a]inden-1-one], the values for the Ki on ε-PKC, at γ-PKC and on α-PKC were 1300 ± 377 nM, 1230 ± 258 nM and 2980 ± 1040 nM, respectively.
The corresponding values for `CCCCCCCCCCCC(=O)Oc1ccc2c(c1)[C@@](C)(C(C)C)[C@H]1C(=O)N[C@H](CO)[C@@H]21` [Compound 3, (3S, 8S, 9S, 10S)-6-dodecanoyloxyl-3-hydroxymethyl-8-isopropyl-8-methyl-3,3a,8,8a-tetrahydro-2H -2-aza-cyclopenta[a]inden-1-one] are 228 ± 43 nM, 327 ± 65 nM and 674 ± 249 nM.
Turning to `CCCCCCCCCCCC(=O)Oc1ccc2c(c1)[C@](C)(C(C)C)[C@H]1C(=O)N[C@H](CO)[C@@H]21` [Compound 2, (3S, 8R, 9S, 10S)-6-dodecanoyloxyl-3-hydroxymethyl-8-isopropyl-8-methyl-3,3a,8,8a-tetrahydro-2H -2-aza-cyclopenta[a]inden-1-one], the Ki (as a rule, the dissociation constant of the complex between target and ligand, obtained from inhibition or displacement) at ε-PKC stood at 515 ± 155 nM; on γ-PKC, 209 ± 38 nM; at α-PKC, 395 ± 71 nM.
`CCCCCCCCCCCC(=O)Oc1cc2c(cc1C(C)=O)[C@@H]1[C@@H](CO)NC(=O)[C@@H]1[C@@]2(C)C(C)C` [Compound 11, (3S, 8R, 9S, 10S)-5-acetyl-6-dodecanoyloxyl-3-hydroxymethyl-8-isopropyl-8-methyl-3,3a,8,8a-tetrahydro-2H -2-aza-cyclopenta[a]inden-1-one]: the Ki on ε-PKC, on γ-PKC and at α-PKC was > 10000 nM in each case.
For the molecule `CCCCCCCCCCCC(=O)Oc1cc2c(cc1C(C)=O)[C@@H]1[C@@H](CO)NC(=O)[C@@H]1[C@]2(C)C(C)C` [Compound 4, (3S, 8S, 9S, 10S)-5-acetyl-6-dodecanoyloxyl-3-hydroxymethyl-8-isopropyl-8-methyl-3,3a,8,8a-tetrahydro-2H -2-aza-cyclopenta[a]inden-1-one], the results for the Ki on ε-PKC, at γ-PKC and on α-PKC were 5100 ± 3110 nM, 3650 ± 1090 nM and 2250 ± 585 nM, respectively.
With `CCCCCCCCC#Cc1ccc2c(c1)C(C)(C(C)C)C1C(=O)NC(CO)C21` [Compound 1, (3S, 8R, 9S, 10S)-6-(dec-1′-ynyl)-3-hydroxymethyl-8-isopropyl-8-methyl-3,3a,8,8a-tetrahydro-2H-2-aza-cyclopenta[a]inden-1-one], the Ki is 469 nM and 946 nM on ε-PKC; 279 ± 50 nM at γ-PKC; 580 ± 214 nM at α-PKC.
